In brackets after ≈: the same amount, converted by molar mass.
Assays:
HUVEC [1] = assay: HUVEC proliferation, [3H]-thymidine incorporation assay; assay type: cell-based, human; details: HUVEC
Procedure: (§1) The inhibitory effects of the new analogs on HUVEC proliferation were measured using a [3H]-thymidine incorporation assay. The log P values, used as an indicator of lipophilicity, were calculated using ALOGPS2.1 software. Aqueous solubility is a key physiochemical property relevant for oral absorption. We determined the solubility of each analog in 0.001 N HCl (pH=3), which represents the acidic human gastric fluid.
HUVEC Culture and Proliferation Assays. HUVEC (Lonza) were grown in EGM-2 bullet kit media (Lonza) and used at passage eight or lower. The H thymidine incorporation assays were conducted as previously described. Briefly, cells were seeded on 96-well plate at a concentration of 2000 cells/well and allowed to settle overnight. Drugs were added to each well in triplicate. After 24 hours, cells were treated with 1 μCi of [3H] thymidine for 6 h. Then cells were harvested and transferred to filtermats. The scintillation were counted and IC50 were determined using Prism software (version 6.0).

[2] = Aqueous solubility test in 0.001N HCl; assay type: physicochemical; details: 0.001 N HCl aqueous buffer, simulated gastric fluid, kinetic from dmso stock; thermodynamic solubility, HPLC, pH=3, room temperature, 24 h
Procedure: as §1
Aqueous solubility test. In a 1.5 mL microcentrifuge tube, 2 ul of 10 mM compound stock solution in DMSO was added to 1 mL 0.001N HCl aqueous buffer to obtain saturated solution. The resulting mixture was shaken under 600 rpm for 24 h at room temperature. Then the tube was centrifuged at 13,000 rpm for 5 min to remove the undissolved compound. 100 ul of the supernatant was injected to an Agilent 6120 LC/MS for analysis. The mass spectrometry data was collected under SIM/Scan mode. The ions of compound Exact Mass+1 and Exact Mass+23 were monitored as selected ion monitoring (SIM) for peak area integration. Solubility was calculated according to the concentration standard curve of each compound.

HUVEC [3] = assay: HUVEC proliferation, [3H]-thymidine incorporation assay; assay type: cell-based; details: Homo sapiens, mean ± SD, three independent experiments, read-out: HUVEC inhibition IC50
CYP3A4 = molecular target: T1, CYP3A4 (Homo sapiens, UniProt P08684); assay: CYP3A4 enzyme assay (Vivid CYP3A4 Green Screening Kit); assay type: in vitro ADME; details: dose-response, FIG. 2 / FIG. 6; read-out: IC50 for CYP3A4 inhibition
T1 construct: purchased ThermoFisher P2857; host or cells: baculosomes (insect-cell microsomes, own knowledge)
T1 sequence (P08684 whole entry): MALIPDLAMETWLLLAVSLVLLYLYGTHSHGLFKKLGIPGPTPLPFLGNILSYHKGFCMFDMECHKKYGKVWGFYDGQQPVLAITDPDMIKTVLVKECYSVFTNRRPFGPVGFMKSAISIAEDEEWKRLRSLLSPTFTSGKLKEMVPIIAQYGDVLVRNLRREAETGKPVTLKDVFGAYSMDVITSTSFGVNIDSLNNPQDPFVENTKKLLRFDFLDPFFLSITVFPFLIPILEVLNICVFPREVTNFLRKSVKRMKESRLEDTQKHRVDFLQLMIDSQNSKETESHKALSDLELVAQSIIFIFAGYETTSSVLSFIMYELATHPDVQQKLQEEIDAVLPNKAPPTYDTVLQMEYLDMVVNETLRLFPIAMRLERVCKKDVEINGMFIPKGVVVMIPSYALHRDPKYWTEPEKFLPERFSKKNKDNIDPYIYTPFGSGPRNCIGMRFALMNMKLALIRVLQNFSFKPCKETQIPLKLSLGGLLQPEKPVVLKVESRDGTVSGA
Procedure: And CYP3A4 inhibition was initially determined using a cell-free fluorescence-based assay at a final concentration of 1 μM (Table 2).
CYP3A4 enzyme assay. CYP3A4 enzyme activity was tested using Vivid™ CYP3A4 Green Screening Kit (ThermoFisher, #P2857) using the manufacturer's protocol. Briefly, CYP3A4 baculosomes and drugs were incubated 10 min at 37° C. Then Vivid® Substrates were added and the fluorescence (ex/em:485/520) were read every 1 min for 60 minute.

HUVECs = assay: Filipin staining of intracellular cholesterol (NPC phenotype); assay type: cell-based, human; details: HUVEC, 0.2 μM, 24 h
Description: Nieman-Pick C phenotype and mTOR inhibition. […] We thus determined whether compound 48 shared the same mechanism with itraconazole. The intracellular cholesterol was detected using the cholesterol-binding fluorescent dye filipin. […] It is known that AMPK activation leads to mTOR inhibition.
Inhibition of NPC1. NPC1 plays an essential role in cholesterol export from the endolysosome. […] At a close view (FIG. 9B), the linear pyridinyl-piperizin-1-yl-phenyl core of compound 14 nestled into the hydrophobic channel created by the transmembrane helix. The isobutyl tail faced toward the open entrance of this channel. The tetrazole moiety pointed into the closed end of the pocket and interacted with the hydroxyl group of Tyr1225 via hydrogen bonding.
Filipin staining. 2000 HUVECs were plated in chamber slide with 1 ml media and allowed to settle overnight. […] The the cells were fixed with 4% paraformaldehyde for 15 min. After washed, cells were incubated with 500 ul 50 ug/ml filipin solution for 1 hour in the dark. Then the cells were washed twice with PBS, mounted and covered with coverslip. The images were taken using confocal microscope under 360/460 nm.

Structure (SMILES) | HUVEC proliferation / anti-angiogenic potency compared to itraconazole, in words (HUVEC [1]) | solubility at 24 h [2] | IC50 (HUVEC [3]) | IC50 (CYP3A4) | induction of NPC phenotype (cholesterol accumulation) (HUVECs)
CCC(C)n1ncn(-c2ccc(N3CCN(c4ccc(OC[C@@H]5CO[C@@](Cn6ccnc6)(c6ccc(Cl)cc6Cl)O5)cc4)CC3)c(F)c2)c1=O (stereo partly drawn) [Compound 1, 4-(4-(4-(4-(((2S,4R)-2-((1H-imidazol-1-yl)methyl)-2-(2,4-dichlorophenyl)-1,3-dioxolan-4-yl)methoxy)phenyl)piperazin-1-yl)-3-fluorophenyl)-2-(sec-butyl)-2,4-dihydro-3H-1,2,4-triazol-3-one] | increased activities | 17.2 µg/mL (≈ 23.7 µM) | 70.1 ± 15.4 nM |  | 
CCC(C)n1ncn(-c2ccc(N3CCN(c4ccc(OC[C@@H]5CO[C@@](Cn6ccnc6)(c6ccc(Cl)cc6Cl)O5)cn4)CC3)cc2)c1=O (stereo partly drawn) [Compound 4, 4-(4-(4-(5-(((2S,4R)-2-((1H-imidazol-1-yl)methyl)-2-(2,4-dichlorophenyl)-1,3-dioxolan-4-yl)methoxy)pyridin-2-yl)piperazin-1-yl)phenyl)-2-(sec-butyl)-2,4-dihydro-3H-1,2,4-triazol-3-one] | increased activities | 2.94 µg/mL (≈ 4.16 µM) | 69.1 ± 7 nM | 2600 nM | 
CCC(C)n1ncn(-c2ccc(N3CCN(c4ccc(OC[C@@H]5CO[C@@](Cn6ccnc6)(c6ccc(Cl)cc6Cl)O5)cn4)CC3)c(F)c2)c1=O (stereo partly drawn) [Compound 5, 4-(4-(4-(5-(((2S,4R)-2-((1H-imidazol-1-yl)methyl)-2-(2,4-dichlorophenyl)-1,3-dioxolan-4-yl)methoxy)pyridin-2-yl)piperazin-1-yl)-3-fluorophenyl)-2-(sec-butyl)-2,4-dihydro-3H-1,2,4-triazol-3-one] | increased activities | 125 µg/mL (≈ 173 µM) | 68 ± 15.5 nM |  | 
CCC(C)n1ncn(-c2ccc(N3CCN(c4ccc(OC[C@@H]5CO[C@@](Cn6ccnc6)(c6ccc(Cl)cc6Cl)O5)cc4)CC3)nc2)c1=O (stereo partly drawn) [Compound 6, 4-(6-(4-(4-(((2S,4R)-2-((1H-imidazol-1-yl)methyl)-2-(2,4-dichlorophenyl)-1,3-dioxolan-4-yl)methoxy)phenyl)piperazin-1-yl)pyridin-3-yl)-2-(sec-butyl)-2,4-dihydro-3H-1,2,4-triazol-3-one] | increased activities | 7.99 µg/mL (≈ 11.3 µM) | 98.5 ± 36.3 nM |  | 
CCC(C)n1ncn(-c2ccc(N3CCN(c4ccc(OC[C@@H]5CO[C@@](Cn6cnnn6)(c6ccc(Cl)cc6Cl)O5)cc4)CC3)c(F)c2)c1=O (stereo partly drawn) [Compound 8, 4-(4-(4-(4-(((2S,4R)-2-((1H-tetrazol-1-yl)methyl)-2-(2,4-dichlorophenyl)-1,3-dioxolan-4-yl)methoxy)phenyl)piperazin-1-yl)-3-fluorophenyl)-2-(sec-butyl)-2,4-dihydro-3H-1,2,4-triazol-3-one] |  | 0.0528 µg/mL (≈ 0.0729 µM) | 153 ± 32.7 nM | > 100000 nM | massive build-up of cholesterol
CCC(C)n1ncn(-c2ccc(N3CCN(c4ccc(OC[C@@H]5CO[C@@](Cn6cnnn6)(c6ccc(Cl)cc6Cl)O5)cn4)CC3)c(F)c2)c1=O (stereo partly drawn) [Compound 15, 4-(4-(4-(5-(((2S,4R)-2-((1H-tetrazol-1-yl)methyl)-2-(2,4-dichlorophenyl)-1,3-dioxolan-4-yl)methoxy)pyridin-2-yl)piperazin-1-yl)-3-fluorophenyl)-2-(sec-butyl)-2,4-dihydro-3H-1,2,4-triazol-3-one] |  | 0.708 µg/mL (≈ 0.975 µM) | 108 ± 8.6 nM | 37000 nM | massive build-up of cholesterol
CCC(C)n1ncn(-c2ccc(N3CCN(c4ccc(OC[C@@H]5CO[C@@](Cn6cncn6)(c6ccc(Cl)cc6Cl)O5)cn4)CC3)cc2)c1=O (stereo partly drawn) [Compound 101, 4-(4-(4-(5-(((2S,4R)-2-((1H-1,2,4-triazol-1-yl)methyl)-2-(2,4-dichlorophenyl)-1,3-dioxolan-4-yl)methoxy)pyridin-2-yl)piperazin-1-yl)phenyl)-2-(sec-butyl)-2,4-dihydro-3H-1,2,4-triazol-3-one] |  | 0.114 µg/mL (≈ 0.161 µM) | 380 ± 50.8 nM | 3400 nM | 
CCC(C)n1ncn(-c2ccc(N3CCN(c4ccc(OC[C@@H]5CO[C@@](Cn6cncn6)(c6ccc(Cl)cc6Cl)O5)cc4)CC3)cn2)c1=O (stereo partly drawn) [Compound 103, 4-(5-(4-(4-(((2S,4R)-2-((1H-1,2,4-triazol-1-yl)methyl)-2-(2,4-dichlorophenyl)-1,3-dioxolan-4-yl)methoxy)phenyl)piperazin-1-yl)pyridin-2-yl)-2-(sec-butyl)-2,4-dihydro-3H-1,2,4-triazol-3-one] |  | 0.496 µg/mL (≈ 0.703 µM) | 188 ± 17.5 nM |  | 
CCC(C)n1ncn(-c2ccc(N3CCN(c4ccc(OC[C@@H]5CO[C@@](Cn6cncn6)(c6ccc(Cl)cc6Cl)O5)cc4)CC3)c(F)c2)c1=O (stereo partly drawn) [Compound 104, 4-(4-(4-(4-(((2S,4R)-2-((1H-1,2,4-triazol-1-yl)methyl)-2-(2,4-dichlorophenyl)-1,3-dioxolan-4-yl)methoxy)phenyl)piperazin-1-yl)-3-fluorophenyl)-2-(sec-butyl)-2,4-dihydro-3H-1,2,4-triazol-3-one] |  | 0.0291 µg/mL (≈ 0.0402 µM) | 128 ± 59.7 nM |  | 
CCC(C)n1ncn(-c2ccc(N3CCN(c4ccc(OC[C@@H]5CO[C@@](Cn6cncn6)(c6ccc(Cl)cc6Cl)O5)nc4)CC3)c(F)c2)c1=O (stereo partly drawn) [Compound 105, 4-(4-(4-(6-(((2S,4R)-2-((1H-1,2,4-triazol-1-yl)methyl)-2-(2,4-dichlorophenyl)-1,3-dioxolan-4-yl)methoxy)pyridin-3-yl)piperazin-1-yl)-3-fluorophenyl)-2-(sec-butyl)-2,4-dihydro-3H-1,2,4-triazol-3-one] |  | 0.255 µg/mL (≈ 0.352 µM) | 446 ± 38.3 nM |  | 
CCC(C)n1ncn(-c2ccc(N3CCN(c4ccc(OC[C@@H]5CO[C@@](Cn6cncn6)(c6ccc(Cl)cc6Cl)O5)cn4)CC3)c(F)c2)c1=O (stereo partly drawn) [Compound 106, 4-(4-(4-(5-(((2S,4R)-2-((1H-1,2,4-triazol-1-yl)methyl)-2-(2,4-dichlorophenyl)-1,3-dioxolan-4-yl)methoxy)pyridin-2-yl)piperazin-1-yl)-3-fluorophenyl)-2-(sec-butyl)-2,4-dihydro-3H-1,2,4-triazol-3-one] |  | 0.848 µg/mL (≈ 1.17 µM) | 173 ± 27.6 nM |  | 
